This note sets out measurements from article PMC8665362, “Identification of small-molecule allosteric modulators that act as enhancers/disrupters of rhodopsin oligomerization” (The Journal of Biological Chemistry, 2021).

Marks after values point to notes of the source that are not given here.

Data set [1] concerns the target T1, rhodopsin (isorhodopsin) dimerization (Homo sapiens, UniProt P08100). The data set can be described thus: rhodopsin β-gal fragment complementation assay in U2OS opsin-EA/opsin-PK cells. The class given is cell-based. The arrangement: expressed in transfected cells. As to conditions: for EC50: U2OS opsin-EA/PK cells regenerated with 9-cis-retinal, triplicates, read from Fig. 3A,D. An excerpt: (§1) To identify small molecules that target rhodopsin dimerization, a cell-based high-throughput screening (HTS) assay was used to screen a diverse library of 50,000 compounds from Life Chemicals. The human osteosarcoma (U2OS) stable cell line was used, which expresses opsin fused with complimentary subunits of β-galactosidase (β-gal), namely, the enzyme acceptor large β-gal subunit (EA) and the enzyme donor, small subunit of β-gal (PK). Upon rhodopsin self-association in vitro, a competent β-gal was formed and chemiluminescent signal was generated in the presence of β-gal substrate (Fig. 1A). For further validation, the β-gal activity assay was used to counter-screen and rule out false positives, affecting the activity of β-gal without affecting rhodopsin (Fig. 1B) ([34]). In an orthogonal assay, rhodopsin dimerization was assessed using a bioluminescence resonance energy transfer (BRET) assay with human embryonic kidney 293 cells expressing opsin fused with Renilla luciferase and opsin fused with Venus (Fig. 1C) ([35], [36]). To form functional visual pigment, opsin-fused proteins were regenerated with 9-cis-retinal to form so-called isorhodopsin ([37]). We chose 9-cis-retinal over photoreceptor-endogenous 11-cis-retinal because of its availability and the prohibitive cost for HTS assays with the native chromophore. Rhodopsin and isorhodopsin have similar biochemical and spectral properties (see ([38])).
All 50,000 compounds were screened, using the β-gal complementation assay at a final concentration of 60 μM with a Z′ factor of 0.75 ± 0.01 and a signal-to-background (S/B) ratio of 123 ± 14.4 (Fig. 2A) ([39]). The activity scores were calculated according to the following equation: (RLU(compound)−RLU(positivecontrol))/(RLU(negativecontrol)−RLU(positivecontrol))×100.
The positive control comprised U2OS cells transfected with both opsin-EA and opsin-PK, mimicking dimer formation (with a 0% score value), and the negative control comprised U2OS cells transfected with opsin-EA only, mimicking disrupted dimer formation (with a 100% score value).
In this study, cultured U2OS opsin-EA and opsin-PK cells were diluted to 2 × 10^5 cells/ml in the culture medium containing 10% fetal bovine serum (Thermo Fisher Scientific) and 1% penicillin-streptomycin 10,000 U/ml (Thermo Fisher Scientific). Cell diluent of 20 μl/well was dispensed into a white ViewPlate-384 (PerkinElmer) using the EL406 plate dispenser (BioTek). As a control, we used U2OS opsin-EA–only expressing cells as a positive control for dimerization disruption generating a minimal luminescence signal, as previously described ([41]). The plates were cultured overnight at 37 °C in 5% CO2, and the next day, under a dim red light, cells were treated with 5 μl/well of 9-cis-retinal (Sigma-Aldrich) at 7.5 μM final concentration. Plates were covered with aluminum foil and cultured overnight at 37 °C in 5% CO2. Next, cells were treated with each of the 50,000 library compounds (Life Chemicals Inc) at a final concentration of 57.6 μM, using a JANUS automated workstation (PerkinElmer), followed by incubation overnight at 37 °C, covered with aluminum foil. The next day, cells were treated with Galacton-Star chemiluminescent substrate (23 μl/well; Thermo Fisher Scientific). The plates were covered with foil and incubated at 20 °C for 2 h, followed by luminescence reading with the EnSpire multimode plate reader (PerkinElmer). Measurements were evaluated with the lowest value being defined as −50% (dimer enhancers) and the highest value as 100% (dimer disrupters) in the compound dataset. All experiments were done under red-light conditions. Identified compounds were retested in triplicates ranging from 180 μM down to 2.4 nM concentrations.

In data set [2] the target is T2, bovine rhodopsin (Bos taurus, UniProt P02699).
T2 construct: The washed ROS with isotonic and hypotonic buffers was used as described above; from tissue; host or cells: bovine rod outer segments (ROS)
T2 sequence (P02699 whole entry): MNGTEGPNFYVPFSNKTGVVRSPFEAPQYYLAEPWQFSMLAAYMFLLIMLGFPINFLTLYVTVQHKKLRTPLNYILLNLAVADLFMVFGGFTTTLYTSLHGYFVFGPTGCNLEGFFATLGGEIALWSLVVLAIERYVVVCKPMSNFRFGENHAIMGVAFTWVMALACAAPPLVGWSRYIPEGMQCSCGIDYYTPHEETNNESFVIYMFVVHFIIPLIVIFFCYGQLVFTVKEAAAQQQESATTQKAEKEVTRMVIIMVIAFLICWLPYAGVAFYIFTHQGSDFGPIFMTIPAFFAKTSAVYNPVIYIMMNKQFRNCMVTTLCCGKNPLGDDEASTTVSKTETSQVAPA
The data set can be described thus: rhodopsin Meta II decay assay (Trp265 intrinsic fluorescence). As to conditions: 100 μM compound; for Meta II decay rate (slope of intrinsic fluorescence over 150 s) relative to DMSO control: bleached rhodopsin, p < 0.0001. The method, then: However, oligomerization of isorhodopsin could affect the chromophore release from opsin. The chromophore release can be measured sensitively by the light-induced increase in intrinsic fluorescence of the Trp^265 residue that occurs upon release of the chromophore after illumination ([43]).
The washed ROS with isotonic and hypotonic buffers was used as described above. The solubilized rhodopsin at 1.05 mg/ml in 20 mM 1,3-bis(tris(hydroxymethyl)methylamino) propane, pH 6.9, 100 mM NaCl, and 1 mM LMNG buffer was incubated for 5 min at 20 °C with 0.7 μl of 100 mM stock solutions of the nine identified hit compounds (100 μM final concentration) in DMSO and centrifuged at 1000g for an additional 5 min. Next, photobleaching was carried out with a 150-W fiber light delivered through a 480 to 520 nm band pass filter (Chroma Technology) for 10 s. Samples were subjected to fluorescence measurements acquired through 150 s in triplicate. The results were analyzed with an L55 luminescence spectrophotometer (PerkinElmer) operating at excitation and emission wavelengths of 300 nm and 335 nm, respectively.

In data set [3] the target is T1, rhodopsin (isorhodopsin) dimerization. The data set can be described thus: rhodopsin dimerization BRET assay in HEK293 opsin-Rluc/opsin-Venus cells. The arrangement: expressed in transfected cells; host or cells: HEK293 (human embryonic kidney 293) opsin-Rluc / opsin-Venus cell lines. The class given is cell-based. Conditions: for EC50: HEK293 opsin-Rluc/opsin-Venus cells regenerated with 9-cis-retinal, triplicates, read from Fig. 3B,E.
Text: as §1
Identified hits from the β-gal complementation assay were subjected to the previously developed BRET assay, using human embryonic kidney 293 opsin–Renilla luciferase and opsin-Venus cell lines ([37]). Cultured cells were diluted to 2 × 10^5 cells/ml in the medium containing 10% fetal bovine serum (Thermo Fisher Scientific) and 1% penicillin-streptomycin (10,000 U/ml; Thermo Fisher Scientific), and 20 μl/well of the cell diluent was dispensed into a white ViewPlate-384 (PerkinElmer). Cells were cultured overnight at 37 °C in 5% CO2, and under a dim red light, cells were treated with 9-cis-retinal at 7.5 μM final concentration. The next day, cells were treated with the identified hit compounds from the β-gal complementation assay at 180 μM down to 2.4 nM concentrations, and 1 μM final concentration of TM5 peptide ([…]-NH2; EZBiolab) serving as the control. On the following day, the culture medium was aspirated and replaced with 90 μl/well of PBS containing pivaloyloxymethyl acetoxycoelenterazine h (Dalton Research Molecules) at 600 μM concentration followed by incubation at 20 °C for 40 min ([35]). Dual luminescence readings at 480 and 530 nm were performed using a SpectraMax L plate reader with the BRET1 filter set (Molecular Devices).
For orientation: In BRET a luciferase serves as donor, and the signal depends on an acceptor being close.

Data set [4] deals with rod photoreceptors of isolated mouse retinas. Nature of the data set: ex vivo ERG of isolated mouse retinas (rod light responses). The class given is cell-based, mouse (C57BL/6J). As to conditions: 250 μM compound. From the text:
We determined the impact of compound #7 (representative disrupter of rhodopsin dimerization) and compound #1 (representative enhancer) on the sensitivity and kinetics of rod light responses, using ex vivo electroretinogram (ERG) analysis of isolated mouse retinas (Experimental procedures). This technique allows robust recordings from intact retinas and is well suited for quantitative investigation of mouse phototransduction ([48], [49], [50], [51], [52], [53]).
Ex vivo ERG recordings were conducted with isolated retinas of C57Bl/6J mice, as described ([41], [62], [63]). Mice were dark-adapted overnight and euthanized by CO2 asphyxiation, and whole retinas were dissected under dim red light. Before recordings, retinas were incubated for 5 h in Ames’ medium (Sigma-Aldrich) inside a light-tight box that was supplied with humidified 95% O2/5% CO2. For control retinas, 0.1% DMSO was added to the incubation medium, and for others, the incubation medium contained either 250 μM F2502-0030 (compound #1) or F5897-0190 (compound #7). These compounds were first dissolved in DMSO at 250 mM concentration, and 0.1% of this stock solution was added to the incubation medium (Ames’ medium). Stock solution was stored at −20 °C and used within a week. After incubation, retinas were placed on the ex vivo ERG specimen holder and perfused with Ames’ medium (saturated with 95% O2/5% CO2) at 1.5 ml/min at 35 °C. Ames’ medium was supplemented with 100 μM BaCl2 and 40 μM DL-AP4 (Tocris Bioscience) to isolate the photoreceptor component of the ERG signal. Responses were recorded to 5 ms flashes of light (630 nm) ranging from 276 to 308,534 photons μm^−2, corresponding to 1 to 1100 photons μm^−2 at 500 nm ([64]). Sensitivity of rod photoreceptors was determined in three ways: (1) sF = peak amplitude of dim flash response divided by flash energy (1 photon μm^−2); (2) SF = sF/Rmax, where Rmax is the maximal response amplitude measured at the plateau from a saturated rod response; (3) I1/2: flash energy required to elicit 50% of the Rmax determined by fitting a Naka-Rushton function to flash energy-amplitude data.

Data set [5] deals with individual rod photoreceptors. Nature of the data set: single-cell suction electrode recording from rod outer segments. The class given is cell-based, mouse (C57BL/6J). As to conditions: long incubation time during sample preparation for single-cell recording. The method, then: Because it is possible that reduction of Rmax by compound #1 is due to some effect(s) on the rod photoreceptor inner segment currents that are not directly related to phototransduction ([51], [52]), we conducted also single-cell suction electrode recordings from the ROS from samples that were incubated either in the control medium or in the medium containing enhancer compound #1. The results from single cell recordings were similar to those obtained using ex vivo ERG: Rmax and fractional sensitivity were decreased from 12 (±0.4) to 9 (±0.3) pA and from 3.0 (±0.5) to 1.8 (±0.1)% per photon μm^−2, respectively, by rhodopsin dimerization–enhancing hit #1 (Fig. 6, A–C). Like the ex vivo ERG recordings, light response kinetics was not affected by compound #1 in the single-cell recordings (Fig. 6D).
Suction electrode recordings from individual rod photoreceptors of dark-adapted C57BL/6J mice were conducted as described previously ([65]). Before recordings, isolated retinas were incubated in the control medium (Ames’ medium + 0.1% DMSO) or in the hit compound–containing medium (Ames’ medium +250 μM F2502-0030 (#1)) as described above for ex vivo ERG experiments. After incubation, one half of the retina was chopped with a razor blade and transferred into a chamber where it was perfused at 1 ml/min with Ames’ medium saturated with 95% O2/5% CO2 at 35 °C. Recordings were made from a single ROS, using borosilicate glass electrodes with ∼1.5-μm opening (resistance ∼2 MΩ at 35 °C). The pipette solution was Hepes buffered Ames’ medium composed of 0.88 g Ames’ powder (A1420, Sigma-Aldrich), 0.357 g Hepes (Sigma-Aldrich), and 58.44 mg NaCl in […] distilled and vacuum-filtered water. The pH was adjusted to 7.4 with NaOH. Light responses were recorded to flashes of light ranging from 8 to 700 photons μm^−2 at 500 nm. For analysis, data were low-pass filtered using an 8-pole Bessel filter with cut-off frequency at 30 Hz.

T1 sequence (P08100 whole entry, the tested form may be a part): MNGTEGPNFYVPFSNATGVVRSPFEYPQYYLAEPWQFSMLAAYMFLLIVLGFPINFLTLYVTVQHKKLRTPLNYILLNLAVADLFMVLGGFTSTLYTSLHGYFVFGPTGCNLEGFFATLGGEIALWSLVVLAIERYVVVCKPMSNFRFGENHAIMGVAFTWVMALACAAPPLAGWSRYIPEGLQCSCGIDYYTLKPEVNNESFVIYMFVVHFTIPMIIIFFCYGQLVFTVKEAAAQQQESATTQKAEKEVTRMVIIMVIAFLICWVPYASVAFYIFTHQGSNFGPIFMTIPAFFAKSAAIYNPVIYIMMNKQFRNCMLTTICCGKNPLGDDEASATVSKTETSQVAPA

By EC50 is commonly meant the concentration that produces a half-maximal response. A high value points to a less potent agent. Take `Cc1c(C(=O)N(Cc2cccnc2)c2nc3c(F)cccc3s2)cnn1-c1ccccc1` [#9]: the EC50 in data set [1] was 10.5 µM; in data set [3], 17.7 µM. Besides, the “Meta II decay rate (slope of intrinsic fluorescence over 150 s) relative to DMSO control” value in data set [2] is recorded as “statistically significant signal reduction”.

In the case of `COc1ccc(S(=O)(=O)N(C(C)=O)c2cc3sc(=O)oc3c3ccccc23)cc1` [#5], the EC50 in data set [1] turned out to be 31.3 µM; in data set [3] it was 5.53 µM.

In the case of `O=C(Nc1ccc(CC(=O)N2CCC(O)CC2)cc1)c1cc(-c2ccco2)on1` [#3], the EC50 in data set [1] amounted to 23.9 µM; in data set [3], 7.87 µM. Further, the “light-induced increase in Trp265 intrinsic fluorescence vs DMSO-treated isorhodopsin” value in data set [2] was “significantly quenched”. In addition, the “Meta II decay rate (slope of intrinsic fluorescence over 150 s) relative to DMSO control” value in data set [2] is recorded as “statistically significant signal reduction”.

In the case of `NC(=O)c1oc2ccccc2c1NC(=O)c1ccc(Oc2ccccc2)cc1` [#8], the EC50 was 16.5 µM in data set [1] and 20.5 µM in data set [3]. For the same molecule, the “Meta II decay rate (slope of intrinsic fluorescence over 150 s) relative to DMSO control” value in data set [2] is given as “statistically significant signal reduction”.

Turning to `O=C(CCCCn1c(=O)c2ccccc2n(Cc2ccccc2)c1=O)NCc1cccs1` [#4], in data set [1], the “effect on dimerization in the β-gal complementation assay” value is listed as “disrupted dimerization”. In addition, in data set [3], the “effect on dimerization in the BRET assay” value is listed as “enhanced dimerization”.

With `O=C(NCCc1ccsc1)c1cc(-c2ccco2)on1` [#2], the EC50 in data set [1] was determined as 1.2 µM; in data set [3], 4 µM.

In the case of `CCOc1ccccc1-n1nnc(-c2nn3c(Cc4ccccc4)nnc3s2)c1C` [#6], the EC50 in data set [1] came to 30 µM; in data set [3], 13.6 µM. Also, the “Meta II decay rate (slope of intrinsic fluorescence over 150 s) relative to DMSO control” value in data set [2] is on record as “statistically significant signal reduction”.

Regarding `Cc1onc(-c2ccccc2Cl)c1C(=O)Nc1cccc2ccc(-n3ccnc3)nc12` [#7], the “effect on kinetics of rod light responses” value in data set [4] is given as “marked deceleration of light responses”. In data set [4] (5 h incubation, N = 4 retinas), this molecule yielded an Rmax of 550 ± 40 μV. Besides, the “half-saturating I1/2 from best-fitting Michaelis–Menten equation to mean normalized amplitudes” value in data set [4] (Fig. 5F) worked out at 34 photons μm^−2. Also, in data set [4] (N = 4), the “SF (fractional sensitivity, sF/rmax)” value is 4.0 ± 0.3 ^a %/photons∙μm^−2 and the “sF (absolute sensitivity)” value was 18 ± 6 ^a μV/photons∙μm^−2. For the same molecule, the I1/2 in data set [4] (from individual retinas, N = 4) is 35 ± 3 ^a photons∙μm^−2. Besides, the tp in data set [4] (time-to-peak of dim flash (1 photon μm^−2), N = 4) is on record as 910 ± 100 ^a ms. In addition, the “Meta II decay rate (slope of intrinsic fluorescence over 150 s) relative to DMSO control” value in data set [2] is recorded as “statistically significant signal reduction”. The “damage to photoreceptor cells” value in data set [5] is “caused damage to the photoreceptor cells”.
